According to US9938516B2, “Non-natural amino acid tRNA synthetases for para-methylazido-L-phenylalanine” (SUTRO BIOPHARMA, INC., priority 2013, dated 2018):

Experiment: copper-free click conjugation kinetics with DBCO-PEG
Assay type: physicochemical
Conditions: 10-fold molar excess DBCO-PEG; 25° C., ionic strength 0.5 M (KCl), 0.005% Tween-20, phosphate buffer
Experimental: The small molecule conjugation kinetics of pAzF and pAMF were compared. In particular, pAzF and pAMF were reacted at increasing concentrations with a 10-fold molar excess of dibenzocyclooctyl-polyethylene glycol (DBCO-PEG) compound (FIG. 2A and FIG. 2C) in a copper-free click reaction. First-order kinetics at 25° C., ionic strength 0.5 M (KCl), and 0.005% Tween-20 in phosphate buffer were determined under pseudo-first-order conditions in triplicate, using a SpectraMax M5 plate reader with 96-well polystyrene plates (Molecular Devices, Sunnyvale, Calif.). The formation of conjugated product was measured by the decrease in absorbance of the strained cyclooctoalkyne DBCO at 306 nm in the presence of increasing concentrations of pAzF or pAMF. The second-order rate constants were calculated according to kcat (M−1 sec-1)=kobs/[Azido].

[N-]=[N+]=NCc1ccc(C[C@H](N)C(=O)O)cc1 [pAMF, para-azidomethyl-L-phenylalanine]
reaction rate relative to pAzF: seven-fold higher
